From patent publication US7625567B1, “Induction of immune responses to isoaspartyl-modified antigens” (Yale University, priority 2001, dated 2009)
Numbered stars: 1 amine (or outer) side, 2 acyl side, 3 side chain; on linkers, the order of the positions; unused ones are H or OH. Square brackets hold non-standard residues; d marks the D form. Ends that are not written are not given here. βAsp = O=C(O)[C@H](CC(=O)[*:2])N[*:1]

How the values were obtained:
B16 melanoma cells = test: Isoaspartyl content of living B16 melanoma cells after adenosine dialdehyde treatment (ISOQUANT assay); assay type: cell-based, murine; conditions: 30 μM adenosine dialdehyde, 48 h
Method: Isoaspartyl residues were detected by the enzyme, protein isoaspartyl methyltransferase, according to the manufacturer's protocol (ISOQUANT™ Protein Deamidation Detection Kit, Promega Corp., Madison, Wis.). In brief, samples and control peptides are incubated 30 min. at 30 C in a reaction mixture containing protein isoaspartyl methyltransferase, [^3H}S-adenosyl-L-methionine, and cold S-adenyl-L-methionine. The reaction is stopped at pH 10 on ice and volatile [^3H]methanol is condensed in the reaction vessel. Fifty μl of sample is adsorbed to a sponge attached to the cap of a scintillation vial. The sample is incubated 60 min. at 40 C to volatize [^3H]methanol into the scintillation mixture and counted for counts/min. […]
Briefly, selected cells, such as B16-F0 melanoma cells, are grown to confluency. The cells are then exposed to trypsin and counted. […] The cells are next harvested using trypsin, washed, and counted. […] Protein concentration is determined in both the supernatant and the pellet. Isoaspartyl generation is determined by ISOQUANT assay described above.
In cell culture, B16 cells were incubated with 30 μM adenosine dialdehyde for 48 h as described above. […] Isoaspartyl content was determined as described above.

B16F10 melanoma cells = test: Anti-tumor antibody response: serum binding to B16F10 cells by flow cytometry; assay type: in vivo, mice; conditions: 50 μg peptide s.c., serum day 28, 1/100 dilution, anti-mouse IgG-FITC
Method: FIG. 8 illustrates that immunization with isoaspartyl TRP-2 elicits anti-tumor antibody responses. Mice were immunized subcutaneously with 50 μg of isoaspartyl or aspartyl TRP-2 peptide, as indicated. Mice were bled at day 28 post immunization. Serum (1/100 dilutions in phosphate buffered saline (PBS)) was incubated with B16F10 melanoma cells (5×10^5 cells) and analyzed by flow cytometry after the detection of bound antibody with anti-mouse IgG-FITC.

[1] = tested on: TRP-2 peptide pulsed syngeneic spleen cells; test: In vivo CTL assay: killing of tumor peptide pulsed target cells; design: species or system mice; conditions: 50 μg in CFA s.c., day 21, 16 hours
Method: In this approach, groups of 6 mice were immunized with isoaspartyl or aspartyl TRP-2 (50 μg in CFA), by subcutaneous route. At day 21 mice were examined for their ability to kill tumor peptide pulsed target cells (in vivo CTL assays) modified by the protocol of Coles, et al. (J. Immunol. 168:834-838 (2002)). In brief, two populations of syngeneic target spleen cells are labeled with low or high concentrations of CFSE (0.5 μM or 5.0 μM CFSE, respectively). Spleen cells labeled with 5.0 μM CFSE are pulsed with isoaspartyl or aspartyl TRP-2 peptide (1 μg/ml) as the in vivo target cell population. Both high CFSE labeled/TRP-2 peptide pulsed and low CFSE labeled/unpulsed spleen cells (1×10^7 cells for each population) are transferred by intravenous route into immunized mice as described above. Mice were sacrificed at 16 hours and in vivo lysis of peptide pulsed targets is defined by flow cytometry technology as: Ratio=% CFSE low/% CFSE high % Specific Killing=[1−(ratio in control immunized/ratio in immunized)×100].

[2] = tested on: TRP-2 specific CD8 T cells; test: MHC class I (H-2 Kb) TRP-2 tetramer staining of CD8 T cells after immunization; assay type: in vivo, mice; conditions: 50 μg s.c. in CFA, day 14 lymph node cells, 5 day culture with isoaspartyl TRP-2 10 μg/ml
Method: FIG. 9 illustrates that CD8 T cells specific for the TRP-2 peptide are elicited by immunization with isoaspartyl TRP-2 peptide. Mice were immunized subcutaneously with 50 μg of isoaspartyl TRP-2 emulsified in CFA. At day 14 after immunization, lymph node cells were removed and single cell suspensions (4×10^6 cells/ml) were incubated in culture with isoaspartyl TRP-2 peptide (10 μg/ml) for 5 days (37° C., 5% CO2). Living cells were purified by Ficoll-hypaque and incubated with anti-CD8-FITC antibody (Promega Inc.) and MHC class I (H-2 Kb) tetramers linked to PE, as indicated. Tetramer staining was performed with a control, non-specific peptide (SIINFEKL) (SEQ ID NO:4) and with aspartyl and isoaspartyl TRP-2 peptide tetramers, as indicated.

[3] = tested on: B16F10 melanoma tumor masses; test: CD8 T cell influx into B16F10 melanoma tumor tissue (immunohistochemistry); assay type: in vivo, mice; conditions: 50 μg in CFA s.c.; challenge day 21 with 0.5×10^6 B16F10 cells; tumors day 14 after challenge
Method: FIG. 11 illustrates an influx of CD8 T cells into melanoma tumor tissues of mice immunized with isoaspartyl TRP-2 immunized mice. […] For these studies, mice were immunized with isoaspartyl or aspartyl TRP-2 (50 μg in CFA), by subcutaneous route. At day 21, mice were challenged with 0.5×10^6 B16F10 melanoma cells by subcutaneous route. At day 14 after tumor cell challenge, tumor masses were removed and stain for CD8 T cells by conventional immunohistochemistry.

[4] = tested on: EL-4 target cells pulsed with TRP-2; test: Cytotoxicity of CD8 T cells from immunized mice against peptide-pulsed EL-4 target cells (Cytotox 96); assay type: in vivo; conditions: 50 μg in CFA s.c.; effector to target ratios 5:1, 10:1, 20:1; EL-4 targets
Method: FIG. 10 illustrates that immunization with isoaspartyl TRP-2 peptide elicits CD8 T cells that kill tumor peptide bearing target cells. Mice were immunized with isoaspartyl or aspartyl TRP-2 (50 μg in CFA), by subcutaneous route. Lymph node cells were expanded in vitro for 5 days with isoaspartyl TRP-2 as described above. After 5 days, purified effector CD8 T cells were mixed with EL-4 target cells pulsed with isoaspartyl TRP-2, aspartyl TRP-2, or unpulsed EL-4 cells, as indicated. Averages of triplicate cultures are reported for effector to target ratios of 5:1, 10:1, and 20:1. Cytotoxicity was performed by commercial non-radioactive methods (Ctyotox 96, Promega, Inc.) according to the manufacturer's instructions. As indicated in the upper panel of FIG. 10, mice immunized with isoaspartyl TR-2 peptide kill up to 35% of TRP-2 pulsed target cells.

[5] = tested on: CD8 T cells stimulated with isoaspartyl or aspartyl TRP-2 pulsed APCs; test: CD8 T cell proliferation after immunization with TRP-2 peptide; assay type: in vivo, C57B1/6 mice; conditions: 50 μg peptide s.c. in CFA, day 7 lymph node CD8 T cells
Method: FIG. 7 illustrates that immunization with isoaspartyl TRP-2 peptide elicits CD8 T cells that proliferate in response to stimulation with isoaspartyl or aspartyl TRP-2 peptide. For these studies, C57B1/6 mice are immunized subcutaneously with 50 μg of either isoaspartyl TRP-2 peptide or aspartyl TRP-2 peptide emulsified in complete Freund's adjuvant (CFA). After 7 days, lymph node cells are collected and CD8 T cells are purified by magnetic bead depletion of CD4+, B220+, CD11c+ cells. CD8 T cells (1×10^5) are incubated for 3 days in tissue culture (37° C., 5% CO2) with irradiated splenic antigen presenting cells (APCs; 5×10^5 cells) pulsed with isoaspartyl TRP-2 or aspartyl TRP-2 in the concentrations as indicated.

B16F10 tumor cells = test: Survival of immunized mice challenged with B16F10 tumor cells; assay type: in vivo; conditions: 50 μg in CFA s.c.; challenge s.c. day 21 with 0.5×10^6 cells; groups of 10 mice
Method: For these studies, groups of 10 mice were immunized with isoaspartyl or aspartyl TRP-2 (50 μg in CFA), by subcutaneous route as described above. Mice were challenged subcutaneously at day 21 with 0.5×10^6 cells. Survival was assessed every 3 days.

[6] = tested on: B and T cell compartments; conditions: mice immunized with peptide (Mamula et al. 1999); cited from earlier work
[7] = target cells transferred: Asp TRP-2 pulsed
[8] = target cells transferred: Isoasp TRP-2 pulsed

Molecule	isoaspartyl content compared to untreated B16 cells (B16 melanoma cells)	anti-tumor antibodies binding B16F10 cells (B16F10 melanoma cells)	% Specific Killing [1, 7] [%]	% Specific Killing [1, 8] [%]	TRP-2 specific CD8 T cells bound by aspartyl and isoaspartyl TRP-2 tetramers [2]	influx of CD8 T cells into tumor masses [3]	killing of TRP-2 pulsed target cells [4]	CD8 T cell response to stimulation with isoaspartyl or aspartyl TRP-2 peptide [5]	survival after B16F10 challenge (B16F10 tumor cells)	B and T cell response to immunization [6]
Nc1ncnc2c1ncn2C(C=O)OC(C=O)CO (centres unmarked) [adenosine dialdehyde]	enhanced from two to five fold	–	–	–	–	–	–	–	–	–
Aspartyl TRP-2: TRP-2 peptide (sequence 181-188) synthesized with an aspartic acid residue at 183 (SEQ ID NO:2) (VYDFFVWL; Human)	–	little or no anti-tumor antibodies are detected	5	22	failed to stimulate TRP-2 specific CD8 T cells	fail to show CD8 T cells in the tumor masses	fail to elicit cytotoxic T cell responses	fails to elicit any detectable T cell responses	–	–
Isoaspartyl TRP-2: TRP-2 peptide (sequence 181-188) synthesized with an isoaspartyl amino acid modification at residue 183 (SEQ ID NO:3) (VY[βAsp]FFVWL)	–	effectively bind B16F10 cells	56	60	profoundly stimulated the growth of CD8 T cells that were bound by aspartyl and isoaspartyl TRP-2 tetramers	significant influx of CD8 T cells	up to 35%	elicits cross reactive T cells that respond to stimulation with either isoaspartyl or aspartyl TRP-2 peptide	greater survival as compared to mice immunized with aspartyl TRP-2 or CFA control immunizations	–
murine cytochrome c peptide 90-104: murine cytochrome c peptide 90-104, normal aspartyl form (ERADLIAYLKKATNE; UniProt P62897 91-105, looked up, fragment)	–	–	–	–	–	–	–	–	–	no response by the B or T cell compartments
